Source: patent publication US6890523B2 (priority 1999, dated 2005)

System: C. difficile
Conditions: hamster; relapse/recurrence of CDAD
Method: Compounds were evaluated for their ability to inhibit the activity of C. difficile toxins the hamster model of C. difficile colitis. Male hamsters (80-100 g) were purchased Biobreeders Inc. (Falmouth, Mass.). All animals were maintained in groups of five in microisolator cages on autoclaved bedding (Beta Chips) and given free access to autoclaved chow and autoclaved, filtered water. Animals were rested approximately 1 week following arrival and prior to initiation of a study. A C. difficile strain initially isolated from a human C. difficile colitis was used to infect the animals. This strain (HUC2-4) produces moderate to high levels of toxins in vitro and in vivo. A suspension of 10^6-10^7 bacterial cells/ml was prepared from an overnight broth culture and 0.1 ml was administered by oral gavage on day −1. Twenty-four hours later, each animal was injected subcutaneously with Cleocin Phosphate IV® at a dose of 10 mg/kg. Polymers were administered to groups of ten animals by gavage three times daily (t.i.d). The dose of polymers was 25-100 mg/day, administered in three divided doses of 0.75 ml each. Initiation and duration of dosing varied according to the treatment regimens as described below. Animals were observed daily for morbidity or mortality. Additional parameters assessed were general appearance, time to onset of clinical signs, and presence or absence of diarrhea (“wet tail”). […]

For `Cc1ncc([N+](=O)[O-])n1CCO` [metronidazole], the “time to death after discontinuing metronidazole” value was 3 to 6 days.
